Like-named read-outs stand apart in the source and are kept apart here.
Tests used:
human CB2 receptors = target: T1, human CB2 receptors (Homo sapiens, UniProt P34972); experiment: functional cAMP assay, human CB2; format: cell-based
T1 construct: expressed in transfected cells; host or cells: CHO cells
Outline: (§1)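 CHO cells with human CB1 or CB2 were switched to Krebs Ringer bicarbonate buffer with 1 mM IBMX for 30 min at 30 °C, then given compound for 30 min at 30 °C. cAMP was measured by time-resolved FRET against a cAMP standard curve, and EC50 values were calculated.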

human CB1 receptors = target: T2, human CB1 receptors (Homo sapiens, UniProt P21554); experiment: functional cAMP assay, human CB1; format: cell-based
T2 construct: expressed in transfected cells; host or cells: CHO cells
T2 sequence (P21554 whole entry): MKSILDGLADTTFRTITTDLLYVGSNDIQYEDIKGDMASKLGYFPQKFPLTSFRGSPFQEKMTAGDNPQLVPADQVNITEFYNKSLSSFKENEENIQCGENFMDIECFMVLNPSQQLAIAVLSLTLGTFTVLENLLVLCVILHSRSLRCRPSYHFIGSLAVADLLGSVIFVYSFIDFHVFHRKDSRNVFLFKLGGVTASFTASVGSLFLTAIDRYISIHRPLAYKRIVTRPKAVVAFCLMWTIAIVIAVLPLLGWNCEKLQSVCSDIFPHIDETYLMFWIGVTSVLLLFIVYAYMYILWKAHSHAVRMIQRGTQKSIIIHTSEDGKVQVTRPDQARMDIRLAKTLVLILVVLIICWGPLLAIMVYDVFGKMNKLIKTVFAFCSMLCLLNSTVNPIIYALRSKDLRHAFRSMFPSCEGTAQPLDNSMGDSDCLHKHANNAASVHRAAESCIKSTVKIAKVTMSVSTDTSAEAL
Outline: as §1

[1] = CHO cells expressing human CB2, cAMP, read-out: human CB2 EC50
[2] = CHO cells expressing human CB1, cAMP, read-out: human CB1 EC50

T1 sequence (P34972 whole entry): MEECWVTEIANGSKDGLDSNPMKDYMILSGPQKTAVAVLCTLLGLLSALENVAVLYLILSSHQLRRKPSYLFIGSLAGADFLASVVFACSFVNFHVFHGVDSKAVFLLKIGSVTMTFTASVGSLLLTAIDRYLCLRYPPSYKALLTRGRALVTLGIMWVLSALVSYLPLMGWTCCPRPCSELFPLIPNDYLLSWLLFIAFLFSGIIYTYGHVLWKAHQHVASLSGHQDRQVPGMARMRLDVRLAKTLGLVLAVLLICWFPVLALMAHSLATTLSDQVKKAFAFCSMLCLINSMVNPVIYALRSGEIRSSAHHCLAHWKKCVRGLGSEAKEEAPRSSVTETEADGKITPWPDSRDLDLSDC

Compound	EC50 (human CB2 receptors; [1]) [nM]	EC50 (human CB1 receptors; [2]) [nM]	EC50 (human CB1 receptors) [nM]	EC50 (human CB2 receptors) [nM]
Cc1nc(Cn2nnc3c(N4CCC(F)(F)C4)nc(C(C)(C)C)nc32)n(C)n1 [Example 163, 5-tert-Butyl-7-(3,3-difluoro-pyrrolidin-1-yl)-3-(2,5-dimethyl-2H-[1,2,4]triazol-3-ylmethyl)-3H-[1,2,3]triazolo[4,5-d]pyrimidine]	5.5	> 10000	–	–
CC(C)(C)c1nc(N2CC[C@H](O)C2)c2nnn(Cc3ccccc3S(C)(=O)=O)c2n1 [Example 143, (S)-1-[5-tert-Butyl-3-(2-methanesulfonyl-benzyl)-3H-[1,2,3]triazolo[4,5-d]pyrimidin-7-yl]-pyrrolidin-3-ol]	0.1	> 10000	–	–
CC(C)(C)c1nc(N2CCS(=O)(=O)CC2)c2nnn(Cc3ccccc3Cl)c2n1 [Example 21, 5-tert-Butyl-3-(2-chloro-benzyl)-7-(1,1-dioxo-1λ6-thiomorpholin-4-yl)-3H-[1,2,3]triazolo[4,5-d]pyrimidine]	2.7	601	–	–
CC1COCCN1c1nc(C(C)(C)C)nc2c1nnn2Cc1ccccc1Cl (centres unmarked) [Example 17, 5-tert-Butyl-3-(2-chloro-benzyl)-7-(3-methyl-morpholin-4-yl)-3H-[1,2,3]triazolo[4,5-d]pyrimidine]	8.7	> 10000	–	–
CC(C)(C)c1nc(N2CC[C@](C)(O)C2)c2nnn(Cc3ncccc3Cl)c2n1 [Example 224-a, (S)-1-(5-tert-butyl-3-((3-chloropyridin-2-yl)methyl)-3H-[1,2,3]triazolo[4,5-d]pyrimidin-7-yl)-3-methylpyrrolidin-3-ol]	1.1	899	–	–
CC(C)(C)c1nc(N2CC[C@](C)(O)C2)c2nnn(CCC(F)(F)F)c2n1 [Example 229-a, (S)-1-(5-tert-butyl-3-(3,3,3-trifluoropropyl)-3H-[1,2,3]triazolo[4,5-d]pyrimidin-7-yl)-3-methylpyrrolidin-3-ol]	30.4	> 10000	–	–
CC(C)(C)c1nc(N2CCC[C@H](O)C2)c2nnn(Cc3ccccc3Cl)c2n1 [Example 33, (S)-1-[5-tert-Butyl-3-(2-chloro-benzyl)-3H-[1,2,3]triazolo[4,5-d]pyrimidin-7-yl]-piperidin-3-ol]	2.5	764	–	–
CC(C)(C)c1nc(N2CCOCC2(C)C)c2nnn(Cc3ccccc3Cl)c2n1 [Example 24, 5-tert-Butyl-3-(2-chloro-benzyl)-7-(3,3-dimethyl-morpholin-4-yl)-3H-[1,2,3]triazolo[4,5-d]pyrimidine]	3	476	–	–
Cc1c(Cn2nnc3c(N4CCC(F)(F)C4)nc(C(C)(C)C)nc32)ccc[n+]1[O-] [Example 147, 5-tert-Butyl-7-(3,3-difluoro-pyrrolidin-1-yl)-3-(2-methyl-1-oxy-pyridin-3-ylmethyl)-3H-[1,2,3]triazolo[4,5-d]pyrimidine]	0.3	209	–	–
Cn1nncc1Cn1nnc2c(N3CC(F)(F)C(F)(F)C3)nc(C(C)(C)C)nc21 [Example 178, 5-tert-Butyl-3-(3-methyl-3H-[1,2,3]triazol-4-ylmethyl)-7-(3,3,4,4-tetrafluoro-pyrrolidin-1-yl)-3H-[1,2,3]triazolo[4,5-d]pyrimidine]	0.9	1890	–	–
CC(C)(C)c1nc(N2CCC(F)(F)C2)c2nnn(Cc3nccc(Cl)c3Cl)c2n1 [Example 124, 5-tert-Butyl-3-(3,4-dichloro-pyridin-2-ylmethyl)-7-(3,3-difluoro-pyrrolidin-1-yl)-3H-[1,2,3]triazolo[4,5-d]pyrimidine]	0.3	276	–	–
CNC1CCN(c2nc(C(C)(C)C)nc3c2nnn3Cc2ccccc2Cl)C1 (centres unmarked) [Example 190, {1-[5-tert-Butyl-3-(2-chloro-benzyl)-3H-[1,2,3]triazolo[4,5-d]pyrimidin-7-yl]-pyrrolidin-3-yl}-methyl-amine]	72.6	> 10000	–	–
Cc1nc(Cn2nnc3c(N4CC[C@H](O)C4)nc(C(C)(C)C)nc32)no1 [Example 149, (S)-1-[5-tert-Butyl-3-(5-methyl-[1,2,4]oxadiazol-3-ylmethyl)-3H-[1,2,3]triazolo[4,5-d]pyrimidin-7-yl]-pyrrolidin-3-ol]	17.4	> 10000	–	–
CC(C)(C)c1nc(N2CCC(F)(F)C2)c2nnn(Cc3ccccc3C(F)(F)F)c2n1 [Example 80, 5-tert-Butyl-7-(3,3-difluoro-pyrrolidin-1-yl)-3-(2-trifluoromethyl-benzyl)-3H-[1,2,3]triazolo[4,5-d]pyrimidine]	0.3	69.3	–	–
CC(C)(C)c1nc(N2CCC(F)(F)C2)c2nnn(Cc3ccc(F)cc3Cl)c2n1 [Example 71, 5-tert-Butyl-3-(2-chloro-4-fluoro-benzyl)-7-(3,3-difluoro-pyrrolidin-1-yl)-3H-[1,2,3]triazolo[4,5-d]pyrimidine]	0.4	> 10000	–	–
COC1CCN(c2nc(C(C)(C)C)nc3c2nnn3Cc2ccccc2Cl)C1 (centres unmarked) [Example 28, 5-tert-Butyl-3-(2-chloro-benzyl)-7-(3-methoxy-pyrrolidin-1-yl)-3H-[1,2,3]triazolo[4,5-d]pyrimidine]	11.2	> 10000	–	–

Compound	EC50 (human CB2 receptors; [1]) [nM]	EC50 (human CB1 receptors; [2]) [nM]	EC50 (human CB1 receptors) [nM]	EC50 (human CB2 receptors) [nM]
CC(C)(C)c1nc(N2CCC(F)(F)C2)c2nnn(CC(O)c3ccccc3)c2n1 (centres unmarked) [Example 88, 2-[5-tert-Butyl-7-(3,3-difluoro-pyrrolidin-1-yl)-[1,2,3]triazolo[4,5-d]pyrimidin-3-yl]-1-phenyl-ethanol]	0.9	391	–	–
CC(=O)N(C)C1CCN(c2nc(C(C)(C)C)nc3c2nnn3Cc2ccccc2Cl)C1 (centres unmarked) [Example 194, N-{1-[5-tert-Butyl-3-(2-chloro-benzyl)-3H-[1,2,3]triazolo[4,5-d]pyrimidin-7-yl]-pyrrolidin-3-yl}-N-methyl-acetamide]	285	–	> 10000	–
CC(C)(C)c1nc(N2CCC(F)(F)C2)c2nnn(CC(=O)c3cccc(Cl)c3)c2n1 [Example 115, 2-[5-tert-Butyl-7-(3,3-difluoro-pyrrolidin-1-yl)-[1,2,3]triazolo[4,5-d]pyrimidin-3-yl]-1-(3-chloro-phenyl)-ethanone]	0.4	> 10000	–	–
CC(C)(C)c1nc(N2CCC[C@H]2C#N)c2nnn(Cc3ccccc3Cl)c2n1 [Example 50, (S)-1-[5-tert-Butyl-3-(2-chloro-benzyl)-3H-[1,2,3]triazolo[4,5-d]pyrimidin-7-yl]-pyrrolidine-2-carbonitrile]	1	139	–	–
CC(C)(C)c1nc(N2CC(F)(F)C2)c2nnn(Cc3ccccc3Cl)c2n1 [Example 12, 5-tert-Butyl-3-(2-chloro-benzyl)-7-(3,3-difluoro-azetidin-1-yl)-3H-[1,2,3]triazolo[4,5-d]pyrimidine]	1.6	1110	–	–
CC(C)(C)c1nc(N2CC2)c2nnn(Cc3ccccc3Cl)c2n1 [Example 41, 7-Aziridin-1-yl-5-tert-butyl-3-(2-chloro-benzyl)-3H-[1,2,3]triazolo[4,5-d]pyrimidine]	–	–	1220	36.5
CC(C)(C)c1nc(N2CC[C@](C)(O)C2)c2nnn(Cc3ccccc3S(C)(=O)=O)c2n1 [Example 223-a, (S)-1-(5-tert-butyl-3-(2-(methylsulfonyl)benzyl)-3H-[1,2,3]triazolo[4,5-d]pyrimidin-7-yl)-3-methylpyrrolidin-3-ol]	0.4	241	–	–
CC(C)(C)c1nc(N2CCOC(CO)C2)c2nnn(Cc3ccccc3Cl)c2n1 (centres unmarked) [Example 18, {4-[5-tert-Butyl-3-(2-chloro-benzyl)-3H-[1,2,3]triazolo[4,5-d]pyrimidin-7-yl]-morpholin-2-yl}-methanol]	46.6	> 10000	–	–
CC(C)(C)c1nc(N2CCC(c3ccccc3)C2)c2nnn(Cc3ccccc3Cl)c2n1 (centres unmarked) [Example 195, 5-tert-Butyl-3-(2-chloro-benzyl)-7-(3-phenyl-pyrrolidin-1-yl)-3H-[1,2,3]triazolo[4,5-d]pyrimidine]	467	–	> 10000	–
CC(C)(C)c1nc(N2CC[C@@](C)(O)C2)c2nnn(Cc3ccccc3S(C)(=O)=O)c2n1 [Example 223-b, (R)-1-(5-tert-butyl-3-(2-(methylsulfonyl)benzyl)-3H-[1,2,3]triazolo[4,5-d]pyrimidin-7-yl)-3-methylpyrrolidin-3-ol]	3	246	–	–
Cc1nc(Cn2nnc3c(N4CCC(F)(F)C4)nc(C(C)(C)C)nc32)no1 [Example 130, 5-tert-Butyl-7-(3,3-difluoro-pyrrolidin-1-yl)-3-(5-methyl-[1,2,4]oxadiazol-3-ylmethyl)-3H-[1,2,3]triazolo[4,5-d]pyrimidine]	0.5	564	–	–
CCNc1nc(C(C)(C)C)nc2c1nnn2Cc1ccccc1Cl [Example 7, [5-tert-Butyl-3-(2-chloro-benzyl)-3H-[1,2,3]triazolo[4,5-d]pyrimidin-7-yl]-ethyl-amine]	11.2	> 10000	–	–
Cn1ncnc1Cn1nnc2c(N3CCC(F)(F)C3)nc(C(C)(C)C)nc21 [Example 132, 5-tert-Butyl-7-(3,3-difluoro-pyrrolidin-1-yl)-3-(2-methyl-2H-[1,2,4]triazol-3-ylmethyl)-3H-[1,2,3]triazolo[4,5-d]pyrimidine]	0.7	> 10000	–	–
CC(C)(C)c1nc(N2CC3(COC3)C2)c2nnn(Cc3ncccc3Cl)c2n1 [Example 187, 5-tert-Butyl-3-(3-chloro-pyridin-2-ylmethyl)-7-(2-oxa-6-aza-spiro[3.3]hept-6-yl)-3H-[1,2,3]triazolo[4,5-d]pyrimidine]	0.8	119	–	–
CC(C)(C)c1nc(N2CCC(F)(F)C2)c2nnn(CCc3ccncc3)c2n1 [Example 122, 5-tert-Butyl-7-(3,3-difluoro-pyrrolidin-1-yl)-3-(2-pyridin-4-yl-ethyl)-3H-[1,2,3]triazolo[4,5-d]pyrimidine]	1.3	> 10000	–	–
